# Laboratory results: ChEMBL document CHEMBL1123368, “Plant antitumor agents. 23. Synthesis and antileukemic activity of camptothecin analogues” (1986)
# Calls of active or inactive are those of the source. The rule behind the calls is not given here.
# What was measured:
# P338 [1] = assay: Compound was evaluated for antitumor activity against P-338 leukemia in mice at the dose of 60 mg/kg; T/C=Survival time of treated/control animals*100; type: functional, Mus musculus
# P338 [2] = assay: Compound was evaluated for antitumor activity against P-338 leukemia in mice, active dose range of the compound; Lowest dose to highest dose administered, dose range was 7.5-60 mg/kg; type: functional, Mus musculus
# P338 [3] = assay: Antitumor activity against P-338 leukemia in mice.; type: functional, Mus musculus
# P338 [4] = assay: Compound was evaluated for antitumor activity against P-338 leukemia in mice at the dose of 3.1 mg/kg; T/C=Survival time of treated/control animals*100; type: functional, Mus musculus
# P338 [5] = assay: Compound was evaluated for antitumor activity against P-338 leukemia in mice, toxic dose range of the compound; type: functional, Mus musculus
# P338 [6] = assay: Compound was evaluated for antitumor activity against P-338 leukemia in mice, active dose range of the compound; Lowest dose administered, dose range was 0.4-3.1 mg/kg; type: functional, Mus musculus
# L1210 leukemia (mouse) [7] = assay: Antitumor activity against L1210 leukemia in mice
# P338 [8] = assay: Compound was evaluated for antitumor activity against P-338 leukemia in mice, active dose range of the compound; Lowest dose to highest dose administered, dose range was 5-40 mg/kg; type: functional, Mus musculus
# L1210 leukemia (mouse) [9] = assay: Compound was evaluated for antitumor activity against L1210 leukemia in mice at the dose of 40 mg/kg; T/C=Survival time of treated/control animals*100
# P338 [10] = assay: Compound was evaluated for antitumor activity against P-338 leukemia in mice.a ctive dose range was 8-32 mg/kg; type: functional, Mus musculus
# P338 [11] = assay: Compound was evaluated for antitumor activity against P-338 leukemia in mice at the dose of 32 mg/kg; T/C=Survival time of treated/control animals*100; type: functional, Mus musculus
# P338 [12] = assay: Compound was evaluated for antitumor activity against P-338 leukemia in mice. toxic dose range of the compound; Highest dose administered; type: functional, Mus musculus
# P338 [13] = assay: Compound was evaluated for antitumor activity against P-338 leukemia in mice at the dose of 25 mg/kg; T/C=Survival time of treated/control animals*100; type: functional, Mus musculus
# P338 [14] = assay: Compound was evaluated for antitumor activity against P-338 leukemia in mice, active dose range of the compound; Lowest dose administered, dose range was 3.12-25 mg/kg; type: functional, Mus musculus
# L1210 leukemia (mouse) [15] = assay: Compound was evaluated for antitumor activity against L1210 leukemia in mice at the dose of 2.5 mg/kg; T/C=Survival time of treated/control animals*100
# L1210 leukemia (mouse) [16] = assay: Compound was evaluated for antitumor activity against L1210 leukemia in mice, active dose range of the compound; Lowest dose administered, dose range was 2.5-5 mg/kg
# P338 [17] = assay: Compound was evaluated for antitumor activity against P-338 leukemia in mice, active dose range of the compound; Lowest dose to highest dose administered, dose range was 2.5-40 mg/kg; type: functional, Mus musculus
# P338 [18] = assay: Compound was evaluated for antitumor activity against P-338 leukemia in mice at the dose of 20 mg/kg; T/C=Survival time of treated/control animals*100; type: functional, Mus musculus
# P338 [19] = assay: Compound was evaluated for antitumor activity against P-338 leukemia in mice, active dose range of the compound; Lowest dose administered, dose range was 2.5-40 mg/kg; type: functional, Mus musculus
# P338 [20] = assay: Compound was evaluated for antitumor activity against P-338 leukemia in mice at the dose of 4 mg/kg; T/C=Survival time of treated/control animals*100; type: functional, Mus musculus
# P338 [21] = assay: Compound was evaluated for antitumor activity against P-338 leukemia in mice; T/C=Survival time of treated/control animals*100; Inactive; type: functional; settings: Mus musculus
# P338 [22] = assay: Compound was evaluated for antitumor activity against P-338 leukemia in mice; T/C=Survival time of treated/control animals *100; Inactive; type: functional; settings: Mus musculus
# P338 [23] = assay: Compound was evaluated for antitumor activity against P-338 leukemia in mice at the dose of 16 mg/kg; T/C=Survival time of treated/control animals*100; type: functional, Mus musculus
# P338 [24] = assay: Compound was evaluated for antitumor activity against P-338 leukemia in mice, active dose range of the compound; Lowest dose to highest dose administered, dose range was 2-32 mg/kg; type: functional, Mus musculus
# P338 [25] = assay: Compound was evaluated for antitumor activity against P-338 leukemia in mice, active dose range of the compound; Lowest dose administered, dose range was 2.0-4.0 mg/kg; type: functional, Mus musculus
# P338 [26] = assay: Compound was evaluated for antitumor activity against P-338 leukemia in mice at the dose of 2 mg/kg; T/C=Survival time of treated/control animals*100; type: functional, Mus musculus
# P338 [27] = assay: Compound was evaluated for antitumor activity against P-338 leukemia in mice, active dose range of the compound; Lowest dose administered, dose range was 1.25-2.5 mg/kg; type: functional, Mus musculus
# P338 [28] = assay: Compound was evaluated for antitumor activity against P-338 leukemia in mice at the dose of 1.6 mg/kg; T/C=Survival time of treated/control animals*100; type: functional, Mus musculus
# P338 [29] = assay: Compound was evaluated for antitumor activity against P-338 leukemia in mice, active dose range of the compound; Lowest dose administered, dose range was 0.4-1.6 mg/kg; type: functional, Mus musculus
# L1210 leukemia (mouse) [30] = assay: Compound was evaluated for antitumor activity against L1210 leukemia in mice at the dose of 10 mg/kg; T/C=Survival time of treated/control animals*100
# L1210 leukemia (mouse) [31] = assay: Compound was evaluated for antitumor activity against L1210 leukemia in mice, active dose range of the compound; Lowest dose administered, dose range was 2.5-20 mg/kg
# P338 [32] = assay: Compound was evaluated for antitumor activity against P-338 leukemia in mice, active dose range of the compound; Lowest dose administered, dose range was 7.5-15.5 mg/kg; type: functional, Mus musculus
# P338 [33] = assay: Compound was evaluated for antitumor activity against P-338 leukemia in mice, active dose range of the compound; Lowest dose administered, dose range was 4-16 mg/kg; type: functional, Mus musculus
# P338 [34] = assay: Compound was evaluated for antitumor activity against P-338 leukemia in mice at the dose of 8 mg/kg; T/C=Survival time of treated/control animals*100; type: functional, Mus musculus
smiles,measurement,setting,value
CCC1(O)C(=O)OCc2c1cc1n(c2=O)Cc2cc3ccc(O)cc3nc2-1 (racemic),T/C,P338 [1],357%
same,Active dose range,P338 [2],7.5 mg/kg
same,No. of cures,P338 [3],3
CC[C@@]1(O)C(=O)OCc2c1cc1n(c2=O)Cc2cc3cc(O)ccc3nc2-1 [HYDROXYCAMPTOTHECIN],T/C,P338 [4],297%
same,Toxic dose,P338 [5],6.25 mg/kg
same,No. of cures,P338 [3],0
same,Active dose range,P338 [6],0.4 mg/kg
CCC1(O)C(=O)OCc2c1cc1n(c2=O)Cc2cc3cc(NC(C)=O)ccc3nc2-1 (stereo not drawn),No. of cures,P338 [3],1
same,KE (log cell kill),L1210 leukemia (mouse) [7],> 5.86
same,Active dose range,P338 [8],5 mg/kg
same,T/C,L1210 leukemia (mouse) [9],318%
CCC1(O)C(=O)OCc2c1cc1n(c2=O)Cc2cc3cccnc3nc2-1 (stereo not drawn),No. of cures,P338 [3],0
same,Active dose range,P338 [10],8 mg/kg
same,T/C,P338 [11],175%
CCC1(O)C(=O)OCc2c1cc1n(c2=O)Cc2cc3sccc3nc2-1 (racemic),Toxic dose,P338 [12],50 mg/kg
same,T/C,P338 [13],193%
same,No. of cures,P338 [3],0
same,Active dose range,P338 [14],3.12 mg/kg
CC[C@@]1(O)C(=O)OCc2c1cc1n(c2=O)Cc2cc3c(N)cccc3nc2-1 [9-AMINOCAMPTOTHECIN],T/C,L1210 leukemia (mouse) [15],348%
same,Active dose range,L1210 leukemia (mouse) [16],2.5 mg/kg
same,No. of cures,P338 [3],4
same,KE (log cell kill),L1210 leukemia (mouse) [7],> 5.86
CC[C@](O)(C(=O)[O-])c1cc2n(c(=O)c1CO)Cc1cc3ccccc3nc1-2.[Na+],T/C,L1210 leukemia (mouse) [9],215%
CC[C@@]1(O)C(=O)OCc2c1cc1n(c2=O)Cc2cc3c([N+](=O)[O-])c(O)ccc3nc2-1,No. of cures,P338 [3],0
same,Active dose range,P338 [17],2.5 mg/kg
same,T/C,P338 [18],131%
CC[C@@]1(O)C(=O)OCc2c1cc1n(c2=O)Cc2cc3c(NC(C)=O)c(O)ccc3nc2-1,No. of cures,P338 [3],0
same,Active dose range,P338 [17],2.5 mg/kg
same,T/C,L1210 leukemia (mouse) [9],220%
CC[C@@]1(O)C(=O)OCc2c1cc1n(c2=O)Cc2cc3cccc([N+](=O)[O-])c3nc2-1,No. of cures,P338 [3],0
same,Active dose range,P338 [19],2.5 mg/kg
same,T/C,L1210 leukemia (mouse) [9],151%
CC[C@@]1(O)C(=O)OCc2c1cc1n(c2=O)Cc2cc3c(N)c(OC)ccc3nc2-1,No. of cures,P338 [3],0
same,T/C,L1210 leukemia (mouse) [9],186%
CC[C@@]1(O)C(=O)OCc2c1cc1n(c2=O)Cc2cc3ccccc3nc2-1 [CAMPTOTHECIN],T/C,P338 [20],197%
CC[C@@]1(O)C(=O)OCc2c1cc1n(c2=O)Cc2cc3cccc(N)c3nc2-1,T/C,P338 [21],inactive
CC[C@@]1(O)C(=O)OCc2c1cc1n(c2=O)Cc2cc3c([N+](=O)[O-])c(OC)ccc3nc2-1,No. of cures,P338 [3],0
same,Active dose range,P338 [17],2.5 mg/kg
same,T/C,L1210 leukemia (mouse) [9],160%
CCC1(O)C(=O)OCc2c1cc1n(c2=O)Cc2cc3cc(OC)c(OC)cc3nc2-1 (racemic),Toxic dose,P338 [12],>50 mg/kg
same,T/C,P338 [22],inactive
CCN(CC)CCOc1ccc2nc3c(cc2c1)Cn1c-3cc2c(c1=O)COC(=O)[C@]2(O)CC.Cl,T/C,P338 [23],183%
same,Active dose range,P338 [24],2 mg/kg
same,No. of cures,P338 [3],0
CCC1(O)C(=O)OCc2c1cc1n(c2=O)Cc2cc3cc4c(cc3nc2-1)OCO4 (racemic),No. of cures,P338 [3],2
same,KE (log cell kill),L1210 leukemia (mouse) [7],> 5.97
same,Active dose range,P338 [25],2 mg/kg
same,T/C,P338 [26],325%
CCC1(O)C(=O)OCc2c1cc1n(c2=O)Cc2cc3cnccc3nc2-1 (stereo not drawn),T/C,L1210 leukemia (mouse) [15],162%
same,No. of cures,P338 [3],0
same,Active dose range,P338 [27],1.25 mg/kg
CC[C@@]1(O)C(=O)OCc2c1cc1n(c2=O)Cc2cc3cc(OC)ccc3nc2-1,T/C,P338 [28],167%
same,No. of cures,P338 [3],0
same,Active dose range,P338 [29],0.4 mg/kg
CC[C@@]1(O)C(=O)OCc2c1cc1n(c2=O)Cc2cc3c([N+](=O)[O-])cccc3nc2-1 [RUBITECAN],T/C,L1210 leukemia (mouse) [30],348%
same,Toxic dose,P338 [12],40 mg/kg
same,No. of cures,P338 [3],5
same,KE (log cell kill),L1210 leukemia (mouse) [7],> 5.86
same,Active dose range,L1210 leukemia (mouse) [31],2.5 mg/kg
CCC1(O)C(=O)OCc2c1cc1n(c2=O)Cc2cc3cc([N+](=O)[O-])ccc3nc2-1 (racemic),No. of cures,P338 [3],1
same,KE (log cell kill),L1210 leukemia (mouse) [7],> 5.86
same,Active dose range,P338 [32],7.5 mg/kg
CC[C@@]1(O)C(=O)OCc2c1cc1n(c2=O)Cc2cc3cc(OCC(=O)O)ccc3nc2-1,T/C,P338 [21],inactive
CCC1(O)C(=O)OCc2c1cc1n(c2=O)Cc2cc3cc(N)ccc3nc2-1 (racemic),Toxic dose,P338 [12],32 mg/kg
same,No. of cures,P338 [3],3
same,KE (log cell kill),L1210 leukemia (mouse) [7],> 5.86
same,Active dose range,P338 [33],4 mg/kg
same,T/C,P338 [34],329%
